Laboratory results as given in patent US20160339079A1, “TRANSMUCOSAL AND TRANSEPITHELIAL DRUG DELIVERY SYSTEM” (UNIVERSITY OF BIRMINGHAM, priority 2014, published 2016).

Legend:
[1] = system: Retinal Ganglion Cells; assay type: cell-based, rats
Protocol: The cells were studied against several cell lines for any cytotoxic effects they might induce. Dissociated retinal cultures were prepared from rats and plated onto culture plates. The cells were treated with nanosome peptide and then incubated for 72 hours and fixed with formaldehyde. The cells were stained with β3 tubulin and imaged on the fluorescence microscope. The positive cells were counted and comparisons were taken.

[2] = system: primary rat meningeal fibroblast cells; assay type: cell-based, Sprague-Dawley Rats
Protocol: The nanosome toxicity was also tested against primary rat meningeal fibroblast cells. The cells were isolated from Sprague-Dawley Rats. The leptomeninges was removed from the rat and the meningeal fibroblast cells were isolated from the tissue. The cells were then plated out and treated with nanosome. The cell media was supplemented with resazurin for 2 hours and then harvested and the media fluorescence read at 570 nm. The cell samples were then frozen in deionised water for DNA analysis (FIG. 7). […] This supports the work carried out in the retinal cultures that the nanosomes are not toxic.

[3] = system: gram positive and gram negative bacteria; test: Broad spectrum antibacterial activity; assay type: cell-based; conditions: both gram positive and gram negative bacteria
Protocol: It is effective at killing both gram positive and gram negative bacteria and was particularly selective against pseudomonas aeruginosa with a MIC of 0.03 mg/mL.

## N=C(N)NCCC[C@H](NC(=O)[C@H](CCCNC(=N)N)NC(=O)[C@H](CCCNC(=N)N)NC(=O)[C@H](CCCNC(=N)N)NC(=O)[C@H](CCCNC(=N)N)NC(=O)[C@H](CCCNC(=N)N)NC(=O)CCCCCNC(=S)Nc1ccc2c(c1)C(=O)OC21c2ccc(O)cc2Oc2cc(O)ccc21)C(=O)O [nanosome, RRRRRR-Linker-FITC]
[1]
  β3 tubulin positive cells, treated wells versus control: no significant difference
[2]
  effect on the number of cells in the sample (DNA assay): did not have a significant effect
[3]
  killing of bacteria: highly effective broad spectrum antibacterial agent
